The target in one assay is T1, 6XHIS-ARV1-N98 K84A (Homo sapiens, UniProt Q9H2C2, K84A).
T1 construct: Expressing amino-terminal 98 amino acids of ARV1; made in house; host or cells: E. coli BL21 (pET-28a(+))
T1 sequence (Q9H2C2 1-98 K84A): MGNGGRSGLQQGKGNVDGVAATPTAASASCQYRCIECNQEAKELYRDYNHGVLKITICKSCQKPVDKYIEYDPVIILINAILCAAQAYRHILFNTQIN
Put plainly: Lipid overlay far western, site-directed mutant. To be noted: compared to the ARV1-N98 protein. It is filed as binding. The method, then: (§1) Lipid overlays were blocked in TBST-BSA (100 mM Tris–HCl buffer, pH 7.5, 150 mM NaCl, 0.5% Tween 20, 3% bovine serum albumin) for 1 h and subsequently washed eight separate times with TBST for 2 min each. Overlays were incubated with 0.5 μg/ml GST-tagged or 6XHIS-tagged proteins in 3% TBST-BSA buffer containing 0.1% Triton X-100, for 1 h at room temperature and washed as above. Overlays were incubated with either anti-GST or anti-6XHIS monoclonal antibodies at a 1:1000 dilution in TBST-BSA for 1 h at room temperature followed by eight washes in TBST. Overlays were visualized using Immobilon Western Chemiluminescent horseradish peroxidase substrate and protein–lipid interaction was detected using a GE ImageQuant LAS 3000 imager.

The next assay has as its target T2, GST-ARV1-N50 (Homo sapiens, UniProt Q9H2C2).
T2 construct: Expresses amino-terminal 50 amino acids of ARV1; made in house; host or cells: E. coli BL21 (pGEX-4T1)
T2 sequence (Q9H2C2 1-50): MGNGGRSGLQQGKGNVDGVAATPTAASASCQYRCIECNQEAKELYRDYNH
Put plainly: Lipid overlay far western, truncation. It is filed as binding. To be noted: compared to ARV1-N98 / ARV1-N70. The method, then:
as §1

The next assay addresses GST-Annexin A2 (Homo sapiens, UniProt P07355). Put plainly: Lipid overlay far western (positive control protein). It is filed as binding. How it is done: as §1
In assay [1] the target is T3, GST-ARV1-N98 (N-terminal 98 amino acids, AHD) (Homo sapiens, UniProt Q9H2C2).
T3 construct: Expresses amino-terminal 98 amino acids of ARV1; made in house; host or cells: E. coli BL21 (pGEX-4T1)
T3 sequence (Q9H2C2 1-98): T1 sequence (Q9H2C2 1-98 K84A) with A84K
Put plainly: Protein-lipid liposome binding assay (ultracentrifugation, Western blot). To be noted: protein detected in final pellet. How it is done: (§2) Lyophilized lipids were reconstituted in chloroform at 10 mg/ml and stored in glass tubes with Teflon tops at −20 °C until use. One milliliter of 10 mg/ml stock was dried under a stream of nitrogen in a glass tube until a lipid cake/film was formed. The lipid cake was then rehydrated in BLT rehydration buffer (5 mM Tris/HCl, pH 7.4, containing 150 mM NaCl) to a concentration of 1 mg/ml. Lipid suspensions were subjected to three freeze/thaw cycles using a dry ice ethanol/[…] water bath to encapsulate the buffer and improve liposome formation. The suspension and lipid extruder were equilibrated to temperature for 10 min and liposomes were extruded using […] polycarbonate membranes (Avestin). Liposomes were made by mixing stock lipid PL (1 mg/ml) with PC (10 mg/ml).
Cholesterol composition liposomes were rehydrated with cholesterol rehydration buffer (10 mM Hepes, pH 7.4, containing 150 mM KCl).
(§3) Liposomes were serial diluted in floatation buffer (100 mM NaCl, 2 mM EDTA, pH 5.5) to a final concentration of 0.1 mg/ml. Nine hundred microliters of liposome solution was placed in clear ultracentrifuge tubes and mixed with 100 μl of 0.01 μg/ml of protein. The liposome/protein solution was incubated at room temperature for 1 h with occasional shaking. An initial 100 μl of liposome/protein solution (liposomes) was removed and the remaining 900 μl was centrifuged at 50,000g for 20 min at 4 °C. The pellet was resuspended in 800 μl of fresh floatation buffer, centrifuged as above, and 800 μl of supernatant was removed (wash 1). This was repeated a second time and again 800 μl of supernatant was removed (wash 2). The final pellet was resuspended in 100 μl of floatation buffer plus SDS treatment buffer (pellet). Thirty microliters of each fraction was run on a 15% SDS-PAGE gel and probed with an anti-GST monoclonal antibody at a 1:1500 dilution.
For orientation: Immunoblotting shows a protein as a band on a membrane.

The target of another assay is T4, 6XHIS-ARV1-N98 K67A (Homo sapiens, UniProt Q9H2C2, K67A).
T4 construct: Expressing amino-terminal 98 amino acids of ARV1; made in house; host or cells: E. coli BL21 (pET-28a(+))
T4 sequence (Q9H2C2 1-98 K67A): T1 sequence (Q9H2C2 1-98 K84A) with K67A, A84K
Put plainly: Lipid overlay far western, site-directed mutant. The format is binding. To be noted: compared to the ARV1-N98 protein. The method, then: as §1

The target in the next assay is T5, 6XHIS-ARV1-N98 C34/C37A (Homo sapiens, UniProt Q9H2C2, C34A/C37A).
T5 construct: Expressing amino-terminal 98 amino acids of ARV1; made in house; host or cells: E. coli BL21 (pET-28a(+))
T5 sequence (Q9H2C2 1-98 C34A/C37A): T1 sequence (Q9H2C2 1-98 K84A) with C34A, C37A, A84K
Put plainly: Lipid overlay far western, site-directed mutant. To be noted: compared to the ARV1-N98 protein. The format is binding. The method, then:
as §1

For another assay, the target named is T6, GST-ARV1-N98 C34/C37A (Homo sapiens, UniProt Q9H2C2, C34A/C37A).
T6 construct: Expresses amino-terminal 98 amino acids of ARV1; made in house; host or cells: E. coli BL21 (pGEX-4T1)
T6 sequence (Q9H2C2 1-98 C34A/C37A): T1 sequence (Q9H2C2 1-98 K84A) with C34A, C37A, A84K
Put plainly: Liposome binding assay, site-directed mutant. To be noted: PC:PL, sulfatide or PI(4)P liposomes. The method, then: as §2
Sulfatide liposomes were generated as previously described ([94]). All lipids were resuspended in organic solvents as per manufacturer’s instructions. Liposomes were prepared with mixing PC:PE:cholesterol:sulfatides (1:1:1:4) and subsequently dried down by lyophilization to obtain lipid films. Lipids were hydrated in 20 mM Tris–HCL, pH 6.8, containing 100 mM NaCl at a concentration of 1 mg/ml.
PI(4)P liposomes were generated as described by Knodler et al. ([95]), with some modifications. Briefly, liposomes were generated at a lipid concentration of 10 mg/ml. Liposomes contained PC (60%), PI (30%), PE (8%), and PI(4)P (2%). Lipid solution was dried down and resuspended in liposome buffer (20 mM Hepes–HCL, pH 7.4, containing 1 mM EDTA and 50 mM potassium acetate). Liposomes were formed by sonication on ice.
as §3

[2] abbreviates: lipid-embedded membrane strips, incl. sphingolipid strip.

Here are results for six molecules from article PMC11952846, “The sterol-regulating human ARV1 binds cholesterol and phospholipids through its conserved ARV1 homology domain” (The Journal of Biological Chemistry, 2025).

Substitutions are numbered along the chain they refer to.

Sequence of GST-Annexin A2 (P07355 whole entry): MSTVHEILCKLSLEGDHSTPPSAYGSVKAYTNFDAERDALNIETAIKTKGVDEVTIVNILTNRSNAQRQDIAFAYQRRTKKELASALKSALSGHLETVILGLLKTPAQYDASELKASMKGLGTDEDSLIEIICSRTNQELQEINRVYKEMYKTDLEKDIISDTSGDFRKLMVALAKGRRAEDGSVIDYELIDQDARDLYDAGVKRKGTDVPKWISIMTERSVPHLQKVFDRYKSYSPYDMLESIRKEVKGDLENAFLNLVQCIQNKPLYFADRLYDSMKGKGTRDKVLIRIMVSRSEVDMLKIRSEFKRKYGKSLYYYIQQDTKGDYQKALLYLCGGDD

Regarding `CCCCC/C=C\C/C=C\CCCCCCCC(=O)OC[C@H](COP(=O)(O)OCC(O)COP(=O)(O)OC[C@@H](COC(=O)CCCCCCC/C=C\C/C=C\CCCCC)OC(=O)CCCCCCC/C=C\C/C=C\CCCCC)OC(=O)CCCCCCC/C=C\C/C=C\CCCCC` (stereo partly shown) [CL, cardiolipin], the figures for the “change of lipid-protein interaction” value on 6XHIS-ARV1-N98 K84A and at GST-ARV1-N50 were “weakened” and “eliminated”, respectively. For the same molecule, at GST-Annexin A2 (setting [2]), the lipid-protein interaction entry was “interacted”. The “binding to PC:PL liposomes” value in assay [1] is given as “bound”.
As to `CCCCCCCC/C=C\CCCCCCCC(=O)OC[C@H](COP(=O)(O)OCC(O)CO)OC(=O)CCCCCCC/C=C\CCCCCCCC` (stereo partly shown) [PG, phosphatidylglycerol], the “change of lipid-protein interaction” value at 6XHIS-ARV1-N98 K67A is listed as “weakened”; on 6XHIS-ARV1-N98 K84A it was “weakened”; at 6XHIS-ARV1-N98 C34/C37A, “weakened or eliminated”; at GST-ARV1-N50, “eliminated”. Moreover, on GST-ARV1-N98 C34/C37A, the liposome binding entry is recorded as “not”. The “binding to PC:PL liposomes” value in assay [1] was “bound”.
Turning to phosphatidylethanolamine [PE], the “change of lipid-protein interaction” value at 6XHIS-ARV1-N98 K67A was “interacted weakly”. Also, the “binding to PC:PL liposomes” value in assay [1] is reported as “Neither”.
For the molecule `CCCCCCCCCCCCCCCC(=O)OC[C@H](COP(=O)(O)O)OC(=O)CCCCCCCCCCCCCCC` [PA, phosphatidic acid], the liposome binding entry at GST-ARV1-N98 C34/C37A is given as “bound”. Further, the lipid-protein interaction entry at GST-Annexin A2 (setting [2]) was “weakly”. Moreover, the “binding to PC:PL liposomes” value in assay [1] was “not”.
As to `CCCCCCCCCCCCCCCCCC(=O)OC[C@H](COP(=O)(O)OC[C@H](N)C(=O)O)OC(=O)CCCCCCCCCCCCCCCCC` [PS, phosphatidylserine], the figures for the “change of lipid-protein interaction” value on 6XHIS-ARV1-N98 C34/C37A and at GST-ARV1-N50 were “enhanced” and “restored”, respectively. In addition, at GST-Annexin A2 (setting [2]), the lipid-protein interaction result is recorded as “interacted”. Besides, the “binding to PC:PL liposomes” value in assay [1] was “bound”.
Turning to `CCCCCC(=O)O[C@H](COC(=O)CCCCCNC(=O)CCCC[C@@H]1SC[C@@H]2NC(=O)N[C@@H]21)COP(=O)(O)O[C@H]1[C@H](O)[C@@H](O)[C@H](OP(=O)(O)O)[C@@H](O)[C@H]1O` [reference compound], the results for the “change of lipid-protein interaction” value on 6XHIS-ARV1-N98 K67A, at 6XHIS-ARV1-N98 K84A and on 6XHIS-ARV1-N98 C34/C37A were “increased interactions”, “increased interactions” and “enhanced interactions”, respectively. For the same molecule, the liposome binding result at GST-ARV1-N98 C34/C37A is on record as “bound”. Moreover, the lipid-protein interaction result is given as “strongest interactions” at GST-Annexin A2 (PIP lipid membrane strip, 100pmol-1.56pmol per spot) and “interacted” on GST-Annexin A2 (setting [2]).
